Laboratory results as given in ChEMBL document CHEMBL1133140, “Computer-aided design, synthesis and biological assay of p-methylsulfonamido phenylethylamine analogues” (2000).
Active and inactive are the calls of the source. The calls are words filed in the database; no cut-off is given here.

Key:
[1] = Tested for its maximal percent change of delaying functional refractory period in uM
[2] = Tested for its maximal percent change of heart rate in uM; type: functional
[3] = Tested for its maximal percent change of force of constriction in uM; type: functional
[4] = Tested for its effective concentration for delaying functional refractory period 10 ms in animal atrium; parameters: species or system Cardiac atrium
[5] = Negative log of concentration (-logC)for delaying functional refractory period 10 ms in animal atrium; parameters: species or system Cardiac atrium
[6] = The compound was tested for its maximal percent change of force of constriction in uM; no effect; type: functional
[7] = The compound was tested for its maximal percent change of delaying functional refractory period in uM; no effect

## CN(CCOc1ccccc1)CCc1ccc(NS(C)(=O)=O)cc1
[1]
  Max delta FRP: 20.2%
[2]
  Max delta HR: -28.51%
[3]
  Max delta FC: 20.2%

## CN(CCc1ccc(NS(C)(=O)=O)cc1)Cc1ccc(Cl)cc1
[4]
  Effective concentration: 2.239 µM
[5]
  EA: 5.65

## CN(CCc1ccc(NS(C)(=O)=O)cc1)Cc1ccccc1
[4]
  Effective concentration: 0.372 µM
[5]
  EA: 6.34

## Cc1ccc(CN(CCc2ccc(N(S(C)(=O)=O)S(C)(=O)=O)cc2)Cc2ccccc2)cc1
[4]
  Effective concentration: 0.62 µM
[5]
  EA: 6.21

## CN(CCOc1ccccc1)CCc1ccc(N(S(C)(=O)=O)S(C)(=O)=O)cc1
[1]
  Max delta FRP: 12%
[2]
  Max delta HR: -20.69%
[6]
  Max delta FC: inactive

## C=CCN(CCOc1ccccc1)CCc1ccc(NS(C)(=O)=O)cc1
[1]
  Max delta FRP: 9.77%
[2]
  Max delta HR: -15.18%
[3]
  Max delta FC: 16.7%

## CN(CCc1ccc(NS(C)(=O)=O)cc1)C1CCCCC1
[4]
  Effective concentration: 4.789 µM
[5]
  EA: 5.32

## C=CCN(CCOc1ccccc1)CCc1ccc(N(S(C)(=O)=O)S(C)(=O)=O)cc1
[7]
  Max delta FRP: inactive
[2]
  Max delta HR: -8.33%
[3]
  Max delta FC: 16.7%

## Cc1ccc(CN(C)CCc2ccc(N(S(C)(=O)=O)S(C)(=O)=O)cc2)cc1
[4]
  Effective concentration: 0.953 µM
[5]
  EA: 6.02

## CS(=O)(=O)Nc1ccc(CCN(CCOc2ccc(NS(C)(=O)=O)cc2)Cc2ccc(Cl)cc2)cc1
[4]
  Effective concentration: 0.037 µM
[5]
  EA: 7.44

## CS(=O)(=O)N(c1ccc(CCN(CCOc2ccccc2)Cc2ccccc2)cc1)S(C)(=O)=O
[7]
  Max delta FRP: inactive
[2]
  Max delta HR: -17.86%
[3]
  Max delta FC: 25%

## CS(=O)(=O)Nc1ccc(CCN(Cc2ccccc2)Cc2ccccc2)cc1
[4]
  Effective concentration: 0.27 µM
[5]
  EA: 6.57

## CS(=O)(=O)Nc1ccc(CCN(CCOc2ccc(NS(C)(=O)=O)cc2)Cc2ccccc2)cc1
[4]
  Effective concentration: 0.016 µM
[5]
  EA: 7.8

## CS(=O)(=O)N(c1ccc(CCN(Cc2ccccc2)Cc2ccc3c(c2)OCO3)cc1)S(C)(=O)=O
[4]
  Effective concentration: 0.38 µM
[5]
  EA: 6.41

## CC(=O)N(CCOc1ccc(NS(C)(=O)=O)cc1)CCc1ccc(NS(C)(=O)=O)cc1
[4]
  Effective concentration: 0.021 µM
[5]
  EA: 7.67

## COc1ccccc1CN(CCc1ccc(NS(C)(=O)=O)cc1)Cc1ccccc1
[4]
  Effective concentration: 0.141 µM
[5]
  EA: 6.85

## CS(=O)(=O)Nc1ccc(CCNCCOc2ccc(NS(C)(=O)=O)cc2)cc1 [N-DESMETHYLDOFETILIDE]
[4]
  Effective concentration: 0.023 µM
[5]
  EA: 7.63

## CS(=O)(=O)Nc1ccc(CCN(CCOc2ccccc2)Cc2ccccc2)cc1
[7]
  Max delta FRP: inactive
[2]
  Max delta HR: -31.8%
[3]
  Max delta FC: 25%

## CC(=O)N(CCOc1ccccc1)CCc1ccc(NS(C)(=O)=O)cc1
[1]
  Max delta FRP: 58.4%
[2]
  Max delta HR: -46.17%
[3]
  Max delta FC: -37.9%

## CN(CCOc1ccc(NS(C)(=O)=O)cc1)CCc1ccc(NS(C)(=O)=O)cc1 [DOFETILIDE]
[1]
  Max delta FRP: 24%
[4]
  Effective concentration: 0.012 µM
[2]
  Max delta HR: -30.03%
[3]
  Max delta FC: 17.1%
[5]
  EA: 7.92

## COc1ccc(CN(CCc2ccc(N(S(C)(=O)=O)S(C)(=O)=O)cc2)Cc2ccccc2)cc1
[4]
  Effective concentration: 0.79 µM
[5]
  EA: 6.1

## CS(=O)(=O)Nc1ccc(CCN(Cc2ccccc2)Cc2ccc(Cl)cc2)cc1
[4]
  Effective concentration: 1.05 µM
[5]
  EA: 5.98

## CC(=O)N(CCOc1ccccc1)CCc1ccc(N(S(C)(=O)=O)S(C)(=O)=O)cc1
[7]
  Max delta FRP: inactive
[2]
  Max delta HR: -20.51%
[6]
  Max delta FC: inactive

## CS(=O)(=O)Nc1ccc(CCN(CCOc2ccccc2)C(=O)c2ccccc2)cc1
[1]
  Max delta FRP: 5.33%
[2]
  Max delta HR: -20%
[3]
  Max delta FC: 33.3%

## COc1ccc(CN(C)CCc2ccc(N(S(C)(=O)=O)S(C)(=O)=O)cc2)cc1
[4]
  Effective concentration: 1.17 µM
[5]
  EA: 5.93

## CN(CCc1ccc(NS(C)(=O)=O)cc1)Cc1ccc2c(c1)OCO2
[4]
  Effective concentration: 0.89 µM
[5]
  EA: 6.15
